The test system of data set [1] is THLE-5B-3A4. The method, then:
When the cells reached confluence, the medium was removed by aspiration, and replaced with 30 ml of serum and transferrin free PMRF-4 medium (SFM) containing either vehicle (0.5% DMSO) or compound in 0.5% DMSO.
Cells were incubated for 20 hr at 37° C. Conditioned media (i.e., media incubated with cells) was collected by decanting, then syringe-filtered through 0.22 μm membrane, and stored at −70° C. before preparation for LC/LC/MS/MS analysis.
Following electrophoresis, the proteins were transferred to PVDF membrane at 30 V for 1 hr. […] Following incubation with an anti-rabbit secondary antibody (1:5000 dilution, Sigma), bands were visualized using an enhanced chemiluminescent detection system (ECL+, Amersham, Piscataway, N.J.) and imaged using a cooled charge-coupled device camera (Fluor S-Max, Bio-Rad, Hercules, Calif.). The signals from the blots were quantified using Quantity One software (Bio-Rad).
Conditioned media samples used to identify the proteins were assayed by blotting to determine presence and relative concentrations of the proteins as a function of each treatment. This was done to verify the accuracy of the mass spectral data (Table 3) and to increase the precision of the quantitative measurements.

The test system of data set [2] is THLE-5B-3A4. The data set is described as follows: LC/LC/MS/MS peptide hits of biomarker polypeptides in conditioned media of treated hepatocytes. It is filed as cell-based, human. Conditions: 20 hr, concentrations of Table 1. The procedure: Cells were incubated for 20 hr at 37° C.
Following a single thaw in a 1 L cylinder of water at room temperature, the filtered media were concentrated by centrifugal filtration (10 kDa, Pall Gelman Laboratory, Ann Arbor, Mich.). […] After reduction, 500 nmol of iodoacetamide (Sigma) was added to each sample and incubated in the dark at room temperature for an additional 30 min. Finally, samples were diluted four-fold and 20 μg of TPCK-treated porcine trypsin (Promega, Madison, Wis.) was added to each sample prior to incubation for 18 hr at 37° C. Samples were subsequently desalted using separate C18 spin columns (Nest Group, Southboro, Mass.) before injection onto the LC/LC/MS/MS system.
The capillary column was first packed with 10 cm of C18 reversed-phase material (SelfPack Poros 10 R2, ABI, Framingham, Mass.), and this was followed by 5 cm of strong cation exchange material (Poros 20 HS SCX, ABI). A load of 200 μg of digested material, based on the total protein assay, was used for each analysis.
Each analysis included a salt step, followed by buffer wash, then a reversed phase run of increasing organic concentration. Following the completion of each successive reversed phase gradient, the salt concentration was increased, and the cycle was begun again (FIG. 2).
This separation included a 100 min analysis with a gradient of 0-40% Buffer A to B for 0 to 75 min, 40-100% B for 75-85 min, 100-0% B for 85-90 min, and finally a re-equilibration hold at 0% B for 90-100 min. The aforementioned gradients were delivered by a binary pump (1100, Agilent, Wilmington, Del.), which was split 1:200 prior to connection to the capillary column.
The mass spectrometer's capillary temp was set to 200° C., and the spray voltage was set to 2 kV. In survey scan mode, two microscans were used to acquire 9e^7 counts, with a maximum acquisition time of 1000 msec. In MS/MS mode, 3 microscans were used to acquire 2e^7 counts, with a maximum acquisition time of 300 msec. The instrument was set to trigger data dependent fragmentation of the three most intense ions detected during the MS survey scan.
The output file from the […] program was then downloaded to desktop spreadsheet programs for further statistical analysis (Excel, Microsoft, Redmond, Wash.).

Data set [3] can be described thus: Cytotoxicity in the hepatocyte culture system, inhibition of ATP synthesis (CellTiter-Glo bioluminescence). It is filed as cell-based, human. Particulars: human; hepatotoxic drugs were dosed at their IC50 for cytotoxicity, inhibition of ATP synthesis as endpoint; read-out: Concentration (IC50 value for cytotoxicity). The source says:
(§1) These immortalized cells are reported to be similar to quiescent normal human hepatocytes. […] The THLE-5 cell line (also named THLE-5B) was previously deposited under the terms and conditions of the Budapest Treaty at the American Type Culture Collection on Apr.
(§2) The cell line THLE-5B-3A4, which expresses the 3A4 isoform of cytochrome P450, was derived by transfection of THLE-5B-c15 with a CMV expression vector comprising a human cDNA coding for the specific P450 isoenzyme and a selection marker, using methods known in the art.
(§3) For the purposes of this study, the non-hepatotoxic drugs were administered at 50 μM (Table 1).
In general terms: ATP-based viability assays read luminescence as a measure of living cells.

The test system of a further data set is HHA Cells. The data set is described as above. Type of data set: cell-based, human.
Description: as §1, §2, §3

Setting [4] is: Table 1, 8 treatments of the discovery panel.
[5] abbreviates: Table 2, panel of 20 treatments.

Each structure is given as a SMILES string.

`CC1(COc2ccc(CC3SC(=O)NC3=O)cc2)CCCCC1` (stereo not shown) [Ciglitazone]: the “change in levels of BMS-PTX-265” value with THLE-5B-3A4 [1] is “statistically significant (p<0.05) increase”. Also, in the data set on THLE-5B-3A4 [2], the “peptide hits BMS-PTX-062” value worked out at 27, the “peptide hits BMS-PTX-120” value is 44, the “peptide hits BMS-PTX-225” value is reported as 25 and the “peptide hits BMS-PTX-254” value was 28. In the data set with THLE-5B-3A4 [2], the “peptide hits BMS-PTX-260” value was found to be 24, the “peptide hits BMS-PTX-265” value is 93, the “peptide hits BMS-PTX-447” value was 82 and the “peptide hits BMS-PTX-459” value is given as 31. Moreover, in the data set with THLE-5B-3A4 [2], the “peptide hits BMS-PTX-607” value is 6, the “peptide hits BMS-PTX-749” value was 142, the “peptide hits BMS-PTX-808” value was determined as 14 and the “peptide hits BMS-PTX-837” value is listed as 25. In the data set on THLE-5B-3A4 [2], the “peptide hits BMS-PTX-860” value was found to be 9, the “peptide hits BMS-PTX-(29)147” value came out at 239 and the “peptide hits BMS-PTX-(39)147” value was determined as 36. Further, the IC50 in data set [3] was found to be 38 µM. The “Toxicity in HHA Cells” value in the data set on HHA Cells (setting [4]) is given as “Toxic”. The “Toxicity in HHA Cells” value with HHA Cells (setting [5]) is listed as “Toxic”.
Turning to `O=C1CN(/N=C/c2ccc(-c3ccc([N+](=O)[O-])cc3)o2)C(O)=N1` [Dantrolene], the “Toxicity in HHA Cells” value in the data set with HHA Cells (setting [5]) is on record as “Toxic”.
Still for that read-out and setting: the same measure for `O=C(O)Cc1ccccc1Nc1c(Cl)cccc1Cl` [Diclofenac]: “Non-Toxic”.
For the compound `C#C[C@]1(O)CC[C@H]2[C@@H]3CCc4cc(O)ccc4[C@H]3CC[C@@]21C` [Ethinyl Estradiol], the “Toxicity in HHA Cells” value with HHA Cells (setting [5]) is “Non-Toxic”.
Consider `Cc1oc(-c2ccccc2)nc1CCOc1ccc(C[C@H](Nc2ccccc2C(=O)c2ccccc2)C(=O)O)cc1` [Farglitazar], for which the “change in levels of BMS-PTX-265” value in the data set with THLE-5B-3A4 [1] was “statistically significant (p<0.05) increase”. Besides, in the data set with THLE-5B-3A4 [2], the “peptide hits BMS-PTX-062” value was determined as 29, the “peptide hits BMS-PTX-120” value was found to be 35, the “peptide hits BMS-PTX-225” value amounted to 10 and the “peptide hits BMS-PTX-254” value was 14. In addition, in the data set on THLE-5B-3A4 [2], the “peptide hits BMS-PTX-260” value is 21, the “peptide hits BMS-PTX-265” value was 49, the “peptide hits BMS-PTX-447” value was 54 and the “peptide hits BMS-PTX-459” value is 24. Moreover, in the data set with THLE-5B-3A4 [2], the “peptide hits BMS-PTX-607” value amounted to 13, the “peptide hits BMS-PTX-749” value worked out at 87, the “peptide hits BMS-PTX-808” value came out at 10 and the “peptide hits BMS-PTX-837” value stood at 15. Moreover, in the data set with THLE-5B-3A4 [2], the “peptide hits BMS-PTX-860” value turned out to be 15, the “peptide hits BMS-PTX-(29)147” value came out at 128 and the “peptide hits BMS-PTX-(39)147” value stood at 24. For the same compound, in data set [3], the IC50 came out at 8.61 µM. Further, in the data set with HHA Cells (setting [4]), the “Toxicity in HHA Cells” value is reported as “Toxic”. Besides, in the data set with HHA Cells (setting [5]), the “Toxicity in HHA Cells” value is on record as “Toxic”.
For the compound `CC(C)Cc1ccc(C(C)C(=O)O)cc1` (stereo not shown) [Ibuprofen], in the data set with HHA Cells (setting [5]), the “Toxicity in HHA Cells” value is listed as “Non-Toxic”.
Still for that read-out and setting: the same measure for `C1CCC(C(CC2CCCCN2)C2CCCCC2)CC1` (stereo not shown) [Perhexilene]: “Toxic”.
Same read-out and setting: the value for `CCc1ccc(CCOc2ccc(CC3SC(=O)NC3=O)cc2)nc1` (stereo not shown) [Pioglitazone] was “Non-Toxic”.
Still for that read-out and setting: the same measure for `CCO[C@@H](Cc1ccc(OCCN2c3ccccc3Oc3ccccc32)cc1)C(=O)O` [Ragaglitazar]: “Non-Toxic”; for `O=C(c1ccc(OCCN2CCCCC2)cc1)c1c(-c2ccc(O)cc2)sc2cc(O)ccc12` [Raloxifene]: “Toxic”.
Regarding `CC(C)c1nc(CN(C)C(=O)N[C@H](C(=O)N[C@@H](Cc2ccccc2)C[C@H](O)[C@H](Cc2ccccc2)NC(=O)OCc2cncs2)C(C)C)cs1` [Ritonavir], the “Toxicity in HHA Cells” value with HHA Cells (setting [4]) and in the data set on HHA Cells (setting [5]) was “Toxic” throughout.
In the case of `CN(CCOc1ccc(CC2SC(=O)NC2=O)cc1)c1ccccn1` (stereo not shown) [Rosiglitazone], the “Toxicity in HHA Cells” value in the data set with HHA Cells (setting [4]) and with HHA Cells (setting [5]) was “Non-Toxic” throughout.
Regarding `CC/C(=C(\c1ccccc1)c1ccc(OCCN(C)C)cc1)c1ccccc1` [Tamoxifen], the “Toxicity in HHA Cells” value in the data set with HHA Cells (setting [5]) is recorded as “Toxic”.
On to `CCO[C@@H](Cc1ccc(OCCc2ccc(OS(C)(=O)=O)cc2)cc1)C(=O)O` [Tesaglitazar], for which, in the data set on THLE-5B-3A4 [2], the “peptide hits BMS-PTX-062” value came out at 1, the “peptide hits BMS-PTX-120” value is given as 3, the “peptide hits BMS-PTX-225” value was 0 and the “peptide hits BMS-PTX-254” value worked out at 1. Besides, in the data set with THLE-5B-3A4 [2], the “peptide hits BMS-PTX-260” value amounted to 0, the “peptide hits BMS-PTX-265” value came to 8, the “peptide hits BMS-PTX-447” value is given as 6 and the “peptide hits BMS-PTX-459” value was determined as 8. Moreover, in the data set on THLE-5B-3A4 [2], the “peptide hits BMS-PTX-607” value came out at 0, the “peptide hits BMS-PTX-749” value is 6, the “peptide hits BMS-PTX-808” value is listed as 1 and the “peptide hits BMS-PTX-837” value amounted to 8. Also, in the data set on THLE-5B-3A4 [2], the “peptide hits BMS-PTX-860” value was 0, the “peptide hits BMS-PTX-(29)147” value was found to be 31 and the “peptide hits BMS-PTX-(39)147” value is on record as 1. In addition, the “Toxicity in HHA Cells” value in the data set with HHA Cells (setting [4]) is listed as “Non-Toxic”. Besides, the “Toxicity in HHA Cells” value with HHA Cells (setting [5]) is given as “Non-Toxic”.
As to `CN1CCN(CCCN2c3ccccc3Sc3ccc(C(F)(F)F)cc32)CC1` [Trifluoperazine], the “Toxicity in HHA Cells” value in the data set on HHA Cells (setting [5]) is “Toxic”.
Turning to `Cc1c(C)c2c(c(C)c1O)CCC(C)(COc1ccc(CC3SC(=O)NC3=O)cc1)O2` (stereo not shown) [Troglitazone], the “change in levels of BMS-PTX-265” value in the data set on THLE-5B-3A4 [1] is recorded as “statistically significant (p<0.05) increase”. In the data set with THLE-5B-3A4 [2], the “peptide hits BMS-PTX-062” value worked out at 4, the “peptide hits BMS-PTX-120” value came to 12, the “peptide hits BMS-PTX-225” value worked out at 11 and the “peptide hits BMS-PTX-254” value stood at 7. Also, in the data set with THLE-5B-3A4 [2], the “peptide hits BMS-PTX-260” value is listed as 4, the “peptide hits BMS-PTX-265” value came to 66, the “peptide hits BMS-PTX-447” value turned out to be 33 and the “peptide hits BMS-PTX-459” value is listed as 14. Moreover, in the data set with THLE-5B-3A4 [2], the “peptide hits BMS-PTX-607” value turned out to be 7, the “peptide hits BMS-PTX-749” value was determined as 60, the “peptide hits BMS-PTX-808” value is 10 and the “peptide hits BMS-PTX-837” value is 17. Moreover, in the data set with THLE-5B-3A4 [2], the “peptide hits BMS-PTX-860” value came out at 4, the “peptide hits BMS-PTX-(29)147” value worked out at 67 and the “peptide hits BMS-PTX-(39)147” value was found to be 19. In addition, in data set [3], the IC50 came out at 32.7 µM. Moreover, the “Toxicity in HHA Cells” value with HHA Cells (setting [4]) is “Toxic”. The “Toxicity in HHA Cells” value in the data set with HHA Cells (setting [5]) was “Toxic”.

The values are drawn from patent publication US7452678B2, “Identification of biomarkers for liver toxicity” (Bristol-Myers Squibb Company, priority 2003, dated 2008).
